# Assay results from patent publication US7541466B2, “Tetrahydroisoquinoline derivatives for treating protein trafficking diseases” (Genzyme Corporation, priority 2003, dated 2009).
# What was measured:
# ΔF508 CFTR = molecular target: T1, ΔF508 CFTR (Homo sapiens, UniProt P13569, DEL508-508); assay: MQAE chloride transport assay in C127 cells expressing ΔF508 CFTR; format: cell-based, murine; conditions: for EC50: chloride transport activity, C127 ΔF508 CFTR cells, MQAE; for % of Maximal Response: plateau level in activity at high compound concentration; for % of Maximal Response / Emax: as a percentage of the low temperature response; for Emax: C127, plateau level in activity at high compound concentration, read-out: % of Maximal Response
# T1 construct: expressed in transfected cells
# T1 sequence (P13569 with tags, fused parts or gaps DEL508-508): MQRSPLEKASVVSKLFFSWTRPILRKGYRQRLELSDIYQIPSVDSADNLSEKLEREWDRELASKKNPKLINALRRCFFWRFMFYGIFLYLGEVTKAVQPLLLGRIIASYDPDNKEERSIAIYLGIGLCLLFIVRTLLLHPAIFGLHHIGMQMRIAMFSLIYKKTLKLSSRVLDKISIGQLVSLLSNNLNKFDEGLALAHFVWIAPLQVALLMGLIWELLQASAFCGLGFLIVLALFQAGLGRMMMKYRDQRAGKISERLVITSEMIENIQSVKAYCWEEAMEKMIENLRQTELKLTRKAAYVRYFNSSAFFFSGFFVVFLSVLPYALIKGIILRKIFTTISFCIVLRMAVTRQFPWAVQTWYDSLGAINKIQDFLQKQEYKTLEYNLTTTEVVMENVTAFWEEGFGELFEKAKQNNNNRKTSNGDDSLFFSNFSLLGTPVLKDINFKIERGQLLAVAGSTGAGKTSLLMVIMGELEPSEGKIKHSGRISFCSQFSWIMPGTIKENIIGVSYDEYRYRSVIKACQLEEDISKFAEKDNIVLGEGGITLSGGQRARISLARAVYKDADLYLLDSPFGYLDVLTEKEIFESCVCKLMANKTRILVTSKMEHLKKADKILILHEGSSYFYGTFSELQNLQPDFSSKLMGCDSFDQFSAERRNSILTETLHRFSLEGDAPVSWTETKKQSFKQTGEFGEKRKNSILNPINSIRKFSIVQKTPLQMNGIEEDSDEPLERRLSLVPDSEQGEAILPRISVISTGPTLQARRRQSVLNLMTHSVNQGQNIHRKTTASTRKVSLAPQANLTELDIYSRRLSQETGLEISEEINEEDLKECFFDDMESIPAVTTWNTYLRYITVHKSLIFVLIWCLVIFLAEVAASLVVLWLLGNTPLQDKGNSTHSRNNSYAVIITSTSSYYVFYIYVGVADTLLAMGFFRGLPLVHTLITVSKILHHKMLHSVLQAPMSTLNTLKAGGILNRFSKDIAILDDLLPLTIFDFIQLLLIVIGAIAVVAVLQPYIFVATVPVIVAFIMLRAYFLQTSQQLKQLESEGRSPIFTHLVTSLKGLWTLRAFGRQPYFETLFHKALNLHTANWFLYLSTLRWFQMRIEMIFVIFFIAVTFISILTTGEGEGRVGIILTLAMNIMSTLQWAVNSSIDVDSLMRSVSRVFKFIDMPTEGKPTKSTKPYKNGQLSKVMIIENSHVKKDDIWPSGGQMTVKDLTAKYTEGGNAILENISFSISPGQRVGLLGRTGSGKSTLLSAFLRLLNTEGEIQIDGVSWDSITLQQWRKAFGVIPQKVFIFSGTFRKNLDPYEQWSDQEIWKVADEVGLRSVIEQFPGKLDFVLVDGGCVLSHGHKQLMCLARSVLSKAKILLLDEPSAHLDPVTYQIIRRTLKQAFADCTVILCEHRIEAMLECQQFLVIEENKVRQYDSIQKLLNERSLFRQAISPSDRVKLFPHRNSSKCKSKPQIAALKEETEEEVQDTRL
# Description: C127 cells are a murine mammary epithelial cell line obtained from ATCC (#CRL 1616, American Type Culture Collection, Manassas, Va.). C127 cells were transfected with a bovine papilloma virus-based eukaryotic expression vector containing genes for ΔF508 CFTR and neomycin resistance whose expression was driven by a metallothionein promoter. Clonal cell populations resistant to G418 and positive for staining with anti-CFTR antibody were identified.
# C127 cells expressing ΔF508 CFTR were grown in microtiter plates in DMEM (Dulbecco's Modified Eagle Medium, Hyclone, Logan, Utah) supplemented with fetal bovine serum, antibiotics, and glutamine in a 37° C., 5% CO2 atmosphere. Once confluent, the cells were loaded overnight with the disclosed compounds and a fluorescent dye sensitive to chloride ion concentration, N-(ethoxycarbonylmethyl)-6-methoxy quinolinium bromide (MQAE) (Verkman, Am. J. Physiol. 259 C375-C388 (1990)).
# The following day, cells were washed with chloride-containing buffer to remove extracellular MQAE and to quench intracellular MQAE fluorescence. Chloride buffer was flicked out and replaced with nitrate buffer with added forskolin and IBMX (isobutylmethylxanthine) to stimulate CFTR activity. […] Buffers were adjusted to pH 7.4 and contained: 10 mM HEPES (N-2-Hydroxyethylpiperazine-N′-2-ethanesulfonic acid), 2.4 mM K2HPO4, 0.6 mM KH2PO4, 1.0 mM CaSO4, 1.0 mM MgSO4, 150 mM NaCl or NaNO3, and 25 mM glucose.
# The increase in MQAE fluorescence as a function of time was followed using 360 nm excitation and 460 nm emission wavelengths. Fluorescence increased as chloride flowed out of cells through CFTR and the rate of increase in fluorescence over the first five minutes was taken as a measure of chloride transport activity.
# Cells were treated with mixtures of up to 100 compounds per well for ca. 18 hours before the assay for chloride transport activity. […] Dose-response curves were generated and compounds were ranked based on their EC50 values and maximal responses (the plateau level in activity at high compound concentration, as a percentage of the low temperature response).
# [1] = system: wild-type C57black6/J mice; conditions: female wild-type mice; 4 g/kg/day dose for 2 days; previously measured; cited from earlier work
SMILES,EC50 (ΔF508 CFTR) [nM],% of Maximal Response (ΔF508 CFTR) [%],Emax (ΔF508 CFTR) [%],increase of forskolin response in RPD [1] [mV]
"CCCCCc1ccc(NC(=O)[C@@H]2Cc3ccccc3CN2C(=O)c2cccc(Oc3ccc(OCC)c(Oc4ccccc4)c3)c2)cc1 [Compound 121, (S)-2-[3-(4-Ethoxy-3-phenoxyphenoxy)benzoyl]-1,2,3,4-tetrahydroisoquinoline-3-carboxylic acid (4-pentylphenyl)amide]",6.3,80,,
CCCCCc1ccc(NC(=O)[C@@H]2Cc3ccccc3CN2C(=O)c2cccc(OC(C)(C)C)c2)cc1 [Compound 122],10,,83,
CCCCCc1ccc(NC(=O)[C@@H]2Cc3ccccc3CN2C(=O)c2cccc(CN3CCOCC3)c2)cc1 [Compound 123],95,,63,
CCCCCc1ccc(NC(=O)[C@@H]2Cc3ccccc3CN2C(=O)c2ccc(OC)c(OC)c2)cc1 [Compound 127],180,,83,
"CCCCCc1ccc(NC(=O)[C@@H]2Cc3ccccc3CN2C(=O)c2ccc(OC)c(OCCN3CCOCC3)c2)cc1 [Compound 128, (S)-2-[4-Methoxy-3-(2-morpholin-4-yl-ethoxy)benzoyl]-1,2,3,4-tetrahydroisoquinoline-3-carboxylic acid (4-pentylphenyl)amide]",110,,63,
CCCCCc1ccc(NC(=O)[C@@H]2Cc3ccccc3CN2C(=O)c2cc(Cl)cc(Cl)c2)cc1 [Compound 133],14,,70,
CCCCCc1ccc(NC(=O)[C@@H]2Cc3ccccc3CN2C(=O)c2ccc3c(c2)OCCO3)cc1 [Compound 135],290,,56,
CCCCCc1ccc(NC(=O)[C@@H]2Cc3ccccc3CN2C(=O)c2cc(OCCN3CCOCC3)cc(OC(C)C)c2)cc1 [Compound 137],180,,69,
CCCCCc1ccc(NC(=O)[C@@H]2Cc3ccccc3CN2C(=O)c2cc(OC)c(OC)c(OC)c2)cc1 [Compound 138],93,,67,
CCCCCc1ccc(NC(=O)C2Cc3ccccc3CN2C(=O)c2cccc(OC(C)CC)c2)cc1 (stereo not shown) [Compound 140],4.4,,84,
CCCCCc1ccc(NC(=O)[C@@H]2Cc3ccccc3CN2C(=O)c2cccc(OC(CC)CC)c2)cc1 [Compound 141],12,,84,
CCCCCc1ccc(NC(=O)[C@@H]2Cc3ccccc3CN2C(=O)c2cccc(OC(C)C(C)C)c2)cc1 (stereo partly shown) [Compound 142],8,,88,
CCCCCc1ccc(NC(=O)[C@@H]2Cc3ccccc3CN2C(=O)c2ccc(C)c(OC(C)C)c2)cc1 [Compound 143],5.9,,85,
"CCCCCc1ccc(NC(=O)[C@@H]2Cc3ccccc3CN2C(=O)c2cc(OC(C)C)c(OC)cn2)cc1 [Compound 145, (S)-2-(4-Isopropoxy-5-methoxypyridine-2-carbonyl)-1,2,3,4-tetrahydroisoquinoline-3-carboxylic acid(4-pentylphenyl)amide]",25,75,,
CCCCCc1ccc(NC(=O)[C@@H]2Cc3ccccc3CN2C(=O)c2cc(Oc3cccnc3)ccn2)cc1 [Compound 147],41,,32,
"C[N+](C)(C)[O-] [trimethylamine oxide, trimethylamine-N-oxide]",,,,7.5
